In experiment [1] the test system is 24-hydroxylase mRNA. The experiment in a line: RT-PCR of 24-hydroxylase mRNA in NB-4 cells. The class given is cell-based, human. The settings on record: paricalcitol 0.1 μM, arsenic trioxide 0.6 μM, after 24 hrs. On the procedure:
(§1) HL-60 and NB-4 myeloid leukemia cell lines were treated with paricalcitol (0.01 μM for HL-60, 0.1 μM for NB-4) and/or arsenic trioxide (0.8 μM for HL-60, 0.6 μM for NB-4). Control cells were treated with vehicle alone. […] Cell lysates were also made and used for Western blot which was probed with antibodies to C/EBPβ. (B) Cell lysate of HL-60 cells were made after 3 days and used for Western blot which was probed sequentially with antibodies to Bcl-2, BclXL and Bax (C) Cell lysates of HL-60 cells were made after 1, 2 or 3 days and used for Western blot which was probed sequentially with antibodies to phosphorylated ERK. (D) After pretreatment either with or without […] of PD98059 for 1 hour, HL-60 cells were treated with paricalcitol (0.01 μM) and/or arsenic trioxide (0.8 μM) for 2 days. Control cells were treated with vehicle alone. CD14 expression was measured by flow cytometry.
(§2) In FIG. 6B, HT-29 colon cancer cells were treated with paricalcitol (10^−7M) for 0, 6, 12 or 24 hrs and RNA was harvested. Expression of 24 hydroxylase mRNA was analysed by RT-PCR. The amounts of mRNA were normalized by comparison to 18S RNA. In FIG. 6C, mononuclear cells extracted from spleens of either wild type or VDR knock-out mice were treated with paricalcitol (10^−8M) for either 12 or 24 hrs, and RNA was harvested. Expression of 24 hydroxylase mRNA was analysed by RT-PCR. […]

Experiment [2] relates to HL-60 cells. The experiment can be described thus: Morphological analysis, Wright-Giemza stain. The class given is cell-based, human. The settings on record: 10^−7M, 120 hrs. As to the method:
(A) Cell cycle analysis of HL-60 cells by flow cytometry. HL-60 cells were cultured with paricalcitol (10^−7 M) for 72 hrs, harvested and stained with propidium iodine (PI). Control cells were treated with vehicle alone. Results represent the mean±SD of three independent experiments. (B) HL-60 or NB-4 cells were treated with either paricalcitol (10^−7 M) or 1,25(OH)2D3 (10^−7 M). Cell lysates were prepared after 72 hrs and analyzed by Western blot with a series of antibodies (p21WAF1, p27KIP1, PTEN). Control cells were treated with vehicle alone. The amounts of protein were normalized by comparison to levels of GAPDH. […] Dashed line indicates negative control antibody; black area, CD14 antibody. CD14 positive cells are in the area shown by M2. (D) HL-60 cells were cultured with paricalcitol (10^−7 M) for 120 hrs, fixed and stained with Wright-Giemza stain for morphological analysis.

In experiment [3] the test system is THP-1 myeloid leukemia cells. The experiment in a line: MTT assay. The experiment is classed as cell-based, human. The settings on record: 4 day exposure. In general terms: Formazan colour is commonly taken as a measure of viable cells.
For experiment [4], the system named is 24-hydroxylase mRNA. The experiment in a line: RT-PCR of 24-hydroxylase mRNA in HL-60 cells. The class given is cell-based, human. The settings on record: paricalcitol 0.01 μM, arsenic trioxide 0.8 μM, after 24 hrs. On the procedure: as §1, §2
In experiment [5] the test system is HT-29 human colon cancer tumors. The experiment can be described thus: HT-29 tumors growing in nude mice. The experiment is classed as in vivo. The settings on record: 100 ng/mouse intraperitoneally 3 days a week, vs diluant control. As to the method:
HT-29 cells were bilaterally injected subcutaneously into nude mice, forming two tumors per mouse. The mice were divided randomly into control and experimental groups. […] In FIG. 5A, tumor volumes were measured every week. The mean volume±SD of 10 tumors in each group is shown. […] In FIG. 5B, After 4 weeks of therapy, tumors were removed from each group and weighed. […] For the mouse studies, BNX nu/nu nude mice at 8 weeks of age were purchased from Harlan Sprangue Dawley, Inc. (Indianapolis, Ind.) and their care was in accord with the guidelines of Cedars-Sinai Research Institute. They were maintained in pathogen-free conditions with irradiated chow. […] The mice were blindly randomized to the experimental and control groups. Treatment was started on the day after the injection of […] cells and continued for 6 weeks. […] Tumor sizes were measured every week and calculated by the formula: A (length)×B (width)×C (height)×0.5236. […] All mice were euthanized at the end of the study, and the tumors were fixed in 10% neutral buffered formalin and embedded in paraffin for histological analysis. The data were analyzed by Student's t test.

For experiment [6], the system named is PML-RARα fusion protein. The experiment can be described thus: Western blot for PML-RARα in PR9 cells with zinc. The experiment is classed as cell-based, human. On the procedure: (A) NB-4 myeloid leukemia cell lines were treated with paricalcitol (0.1 μM) and/or arsenic trioxide (0.6 μM) for 3 days. Control cells were treated with vehicle alone. Cell lysates were made and used for Western blot which was probed sequentially with antibodies to RARA to detect the fusion protein PML-RARα. (B) U937 cells were stably transfected with either the control MT vector (U937-PMT) or the PML-RARα cDNA under the control of the Zn2^+-inducible murine metallothionein 1 promoter (PR9). Cells were treated either with (+) or without (−) Zn for 2 days. Paricalcitol and/or arsenic trioxide of the indicated doses were added to the cells. […] (C) U937-PMT and PR9 cells were treated either with or without Zn and with paricalcitol, and/or arsenic trioxide as indicated for 3 days, and CD14 expression was measured by flow cytometry.
Western blot analysis was performed as follows: cells were washed twice in PBS, suspended in lysis buffer (50 mM Tris at pH 8.0, 150 mM NaCl, 0.1% SDS, 0.5% sodium deoxycholate, 1% Nonidet P-40, phenylmethylsulfonyl fluoride at 100 μg/mL, aprotinin at 2 μg/mL, pepstatin at 1 μg/mL, and leupetin at 10 μg/mL), and placed on ice for 30 minutes. […] Protein concentrations were quantitated by using the Bio-Rad protein Assay Dye Reagent Concentrate (Bio-Rad Laboratories, Hercules, Calif.) according to the manufacture's recommendation. […]
(In general: Immunoblotting shows a protein as a band on a membrane.)

In the case of `C[C@H](/C=C/[C@H](C)C(C)(C)O)[C@H]1CC[C@H]2/C(=C/C=C3C[C@@H](O)C[C@H](O)C3)CCC[C@]12C` [paricalcitol, 19-nor-1,25, (OH)2D3], the “mRNA levels of 24-hydroxylase” value in experiment [1] and in experiment [4] was “increased” in each case. Further, the morphological examination result in experiment [2] was “monocytic differentiation”. For the same molecule, the “antiproliferative effect by MTT assay” value in experiment [3] is recorded as “sensitive”. Further, the mean tumor weights result in experiment [5] (after 4 weeks, p=0.0004) was “significantly suppressed”. In experiment [5] (p=0.03), the “growth of colon cancer tumors (tumor volumes)” value is “significantly suppressed”.
In the case of arsenic trioxide, the “concentration at which PML-RARα protein expression was barely detectable” value in experiment [6] (PR9 cells with zinc) is “over 0.4 μM”. Besides, the “protein level of PML-RARa induced by zinc” value in experiment [6] (PR9 cells, dose dependent) was “decreased the protein level of PML-RARa”.

The values are drawn from patent US20050054620A1, “Paricalcitol as a chemotherapeutic agent” (priority 2003, published 2005).
